Series [1] can be described thus: Residual amount of SH group of NAC in the reagent after heat loading at 37°C (quantification with DTNB, absorbance at 412 nm). The series is classed as physicochemical. As to conditions: heat loading at 37°C for 5 days; for SH group residual amount: relative to reagent without heat loading. The protocol:
(§1) Aminoguanidine was added to the above composition to prepare three kinds of reagents different in the concentration of aminoguanidine. The concentrations of aminoguanidine in these reagents were 10 mM, 20 mM and 40 mM respectively. After these reagents were subjected to heat loading at 37°C for 5 days, the residual activity of G6PDH was measured and the residual amount of SH group in NAC was quantified.
The quantification of SH group was carried out by using DTNB (5,5'-dithiobis(2-nitrobenzoic acid)). When DTNB is added to the reagent where NAC is present, disulfide linkages corresponding to the amount of SH groups in the NAC are cleaved to generate 5-mercapto-2-nitrobenzoic acid. When 5-mercapto-2-nitrobenzoic acid is generated, the absorbance at a wavelength of 412 nm is increased, and thus this increase can be measured to determine the amount of SH groups in the reagent.
(§2) In Table 1, the residual activity of G6PDH and the residual amount of SH group of NAC are expressed in percentage. These values are those relative to the activity of G6PDH and the amount of SH group of NAC in each reagent which without subjection to heat loading, was measured by the method described in Example 1. Table 1 […]

The test system of series [2] is G6PDH. The series is described as follows: Residual activity of G6PDH in CK activity measurement reagent after heat loading at 37°C (NADPH formation, absorbance at 340 nm). The series is classed as biochemical. The settings on record: heat loading at 37°C for 5 days; for G6PDH residual activity: relative to reagent without heat loading. The protocol: as §1
The activity of G6PDH was measured in the following manner. First, a solution wherein 20 mM magnesium chloride, 0.6 mM NADP and 0.5 mM G6P were dissolved in a solution containing 0.1 M glycylglycine (pH 8.5) was prepared. When 300 µl of this solution was mixed with 1 µl of the first reagent, NADPH is formed by the activity of G6DPH. When NADPH is formed, the absorbance at a wavelength of 340 nm is increased, and thus this increase is measured to determine the activity of G6PDH.
as §2

The source of these data is EP1739169B1, “Clinical diagnostic reagent comprising glucose 6-phosphate dehydrogenase (G6PDH), method for stabilizing G6PDH, and use of a stabilizer for G6PDH” (SYSMEX CORPORATION, priority 2005, dated 2007).

Take `N=C(N)NN` [aminoguanidine]: the “amount of SH group of NAC after heat loading (in words)” value in series [1] is given as “without reducing the amount of SH group”. Also, the “SH group residual amount” value in series [1] (stabilizer 10 mM in reagent) is listed as 92.2%; in series [1] (stabilizer 20 mM in reagent), 95.4%; in series [1] (stabilizer 40 mM in reagent), 94.1%. In series [2], the “activity of G6PDH after heat loading (in words)” value is “the activity of G6PDH could be maintained”. In addition, the values for the G6PDH residual activity in series [2] (stabilizer 10 mM in reagent), in series [2] (stabilizer 20 mM in reagent) and in series [2] (stabilizer 40 mM in reagent) were 88.2%, 92.6% and 94.8%, respectively.

Regarding `CC(=O)NN` [acetohydrazine, reference compound], in series [1], the “amount of SH group of NAC after heat loading (in words)” value is reported as “NAC was deteriorated to reduce the amount of SH group”. In addition, the “SH group residual amount” value was found to be 78.4% in series [1] (stabilizer 20 mM in reagent) and 77.7% in series [1] (stabilizer 40 mM in reagent). Further, the “activity of G6PDH after heat loading (in words)” value in series [2] is given as “the activity of G6PDH was lost”. For the same compound, the G6PDH residual activity was determined as 84.3% in series [2] (stabilizer 20 mM in reagent) and 87.8% in series [2] (stabilizer 40 mM in reagent).
